From ChEMBL document CHEMBL1201862, “PubChem BioAssay data set” (2004)
The source made the active and inactive calls.

What was measured:
[1] = tested on: H9c2; assay: cells; type: functional, cell-based; details: Rattus norvegicus, H9c2, Myocardium;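 further: confirmatory concentration-response retest of ultra-high-throughput screening hits for modulation of myocardial damage; cell death induced by hydrogen peroxide oxidative stress; compound pretreatment for 60 min then peroxide exposure for 2 h; potency is for protecting the cells against peroxide damage rather than for killing them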
[2] = target: T1, Coagulation factor XII (Homo sapiens, UniProt P00748); assay: Factor XIIa Dose Response Confirmation from Single Well HTS. [Related pubchem assays (depositor defined):AID701]; type: functional
T1 sequence (P00748 whole entry): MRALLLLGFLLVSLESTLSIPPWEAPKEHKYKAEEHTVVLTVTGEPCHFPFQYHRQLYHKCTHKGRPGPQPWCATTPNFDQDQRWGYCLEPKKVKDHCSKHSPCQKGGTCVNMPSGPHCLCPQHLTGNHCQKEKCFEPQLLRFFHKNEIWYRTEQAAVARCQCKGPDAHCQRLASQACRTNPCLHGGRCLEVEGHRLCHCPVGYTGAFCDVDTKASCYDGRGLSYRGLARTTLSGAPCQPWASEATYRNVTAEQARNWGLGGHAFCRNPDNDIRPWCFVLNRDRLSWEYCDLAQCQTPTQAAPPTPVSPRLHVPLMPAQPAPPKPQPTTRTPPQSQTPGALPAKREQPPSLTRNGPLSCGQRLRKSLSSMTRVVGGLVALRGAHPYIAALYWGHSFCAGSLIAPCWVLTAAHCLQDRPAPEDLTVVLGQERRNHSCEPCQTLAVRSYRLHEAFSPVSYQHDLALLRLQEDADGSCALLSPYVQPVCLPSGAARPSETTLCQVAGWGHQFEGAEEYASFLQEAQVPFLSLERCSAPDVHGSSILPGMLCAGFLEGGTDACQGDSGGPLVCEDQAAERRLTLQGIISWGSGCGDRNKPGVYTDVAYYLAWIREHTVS

[3] = target: Glyceraldehyde-3-phosphate dehydrogenase (Homo sapiens, UniProt P04406)
[4] = target: Alkaline phosphatase, placental type (Homo sapiens, UniProt P05187); assay: human placental alkaline phosphatase inhibition – biochemical, luminescence, confirmation (AID 1512); type: functional
[5] = target: T2, Voltage-gated N-type calcium channel alpha-1B subunit/Amyloid beta A4 precursor protein-binding family A member 1 (Homo sapiens, UniProt Q00975+Q02410); type: protein assay
T2 sequence (Q00975 whole entry): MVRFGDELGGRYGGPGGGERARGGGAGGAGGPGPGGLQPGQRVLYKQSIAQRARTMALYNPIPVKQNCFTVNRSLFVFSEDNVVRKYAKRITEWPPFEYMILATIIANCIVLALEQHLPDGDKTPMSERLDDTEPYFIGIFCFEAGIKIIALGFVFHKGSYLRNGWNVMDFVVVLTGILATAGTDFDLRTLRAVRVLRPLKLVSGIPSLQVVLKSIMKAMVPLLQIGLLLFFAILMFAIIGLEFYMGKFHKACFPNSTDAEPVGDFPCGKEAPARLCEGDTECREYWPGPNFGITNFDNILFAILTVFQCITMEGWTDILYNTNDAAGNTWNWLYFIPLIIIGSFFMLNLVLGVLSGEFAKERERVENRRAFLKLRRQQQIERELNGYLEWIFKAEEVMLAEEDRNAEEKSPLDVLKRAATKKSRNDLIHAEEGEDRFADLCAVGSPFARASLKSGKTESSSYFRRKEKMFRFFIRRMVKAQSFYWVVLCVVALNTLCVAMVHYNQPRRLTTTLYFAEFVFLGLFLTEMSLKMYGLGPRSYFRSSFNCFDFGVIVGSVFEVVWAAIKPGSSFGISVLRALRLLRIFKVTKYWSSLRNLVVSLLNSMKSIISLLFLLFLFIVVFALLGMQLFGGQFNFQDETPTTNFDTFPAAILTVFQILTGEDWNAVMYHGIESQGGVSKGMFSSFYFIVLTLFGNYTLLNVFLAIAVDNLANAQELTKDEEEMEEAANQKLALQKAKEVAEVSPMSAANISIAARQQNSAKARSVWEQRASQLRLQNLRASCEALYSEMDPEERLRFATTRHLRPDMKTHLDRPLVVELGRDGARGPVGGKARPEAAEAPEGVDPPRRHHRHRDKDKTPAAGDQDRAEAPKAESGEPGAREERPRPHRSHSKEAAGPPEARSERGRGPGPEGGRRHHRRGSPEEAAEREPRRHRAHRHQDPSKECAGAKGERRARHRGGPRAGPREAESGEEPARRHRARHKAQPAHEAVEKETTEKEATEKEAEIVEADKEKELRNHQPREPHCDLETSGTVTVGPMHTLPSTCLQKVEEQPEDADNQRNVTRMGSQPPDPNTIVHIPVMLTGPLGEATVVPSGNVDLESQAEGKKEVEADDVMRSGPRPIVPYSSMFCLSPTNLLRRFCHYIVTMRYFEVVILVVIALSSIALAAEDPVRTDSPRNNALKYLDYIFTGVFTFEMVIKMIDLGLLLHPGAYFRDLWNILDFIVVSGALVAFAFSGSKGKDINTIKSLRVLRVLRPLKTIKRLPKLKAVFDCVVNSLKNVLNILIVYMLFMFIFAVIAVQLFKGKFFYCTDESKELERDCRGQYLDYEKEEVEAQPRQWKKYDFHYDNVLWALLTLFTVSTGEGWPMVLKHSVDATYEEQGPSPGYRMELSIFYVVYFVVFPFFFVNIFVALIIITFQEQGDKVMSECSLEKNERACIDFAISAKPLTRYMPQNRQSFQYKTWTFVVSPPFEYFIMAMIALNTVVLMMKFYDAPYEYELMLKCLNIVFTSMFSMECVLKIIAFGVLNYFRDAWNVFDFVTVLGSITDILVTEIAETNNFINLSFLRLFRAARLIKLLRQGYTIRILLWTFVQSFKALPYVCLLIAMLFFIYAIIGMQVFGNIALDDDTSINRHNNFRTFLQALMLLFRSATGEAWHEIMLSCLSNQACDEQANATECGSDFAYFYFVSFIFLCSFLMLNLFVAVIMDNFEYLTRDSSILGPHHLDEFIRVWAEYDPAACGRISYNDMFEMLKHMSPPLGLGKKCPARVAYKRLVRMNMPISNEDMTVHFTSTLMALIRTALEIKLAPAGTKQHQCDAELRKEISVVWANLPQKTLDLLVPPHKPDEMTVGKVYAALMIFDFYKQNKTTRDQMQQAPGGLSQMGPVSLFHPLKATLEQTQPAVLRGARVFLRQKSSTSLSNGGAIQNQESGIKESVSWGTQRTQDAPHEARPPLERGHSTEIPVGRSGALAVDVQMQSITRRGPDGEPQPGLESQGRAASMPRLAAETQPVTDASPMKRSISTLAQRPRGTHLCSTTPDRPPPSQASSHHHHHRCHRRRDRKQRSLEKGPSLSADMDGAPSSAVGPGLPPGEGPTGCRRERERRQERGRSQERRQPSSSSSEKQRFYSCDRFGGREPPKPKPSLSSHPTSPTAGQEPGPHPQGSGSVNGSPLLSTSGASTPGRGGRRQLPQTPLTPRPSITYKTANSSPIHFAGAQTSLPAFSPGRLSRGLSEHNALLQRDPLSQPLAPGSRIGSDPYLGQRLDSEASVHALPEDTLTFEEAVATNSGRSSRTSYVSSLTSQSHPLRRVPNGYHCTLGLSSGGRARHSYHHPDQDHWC
T2 sequence (Q02410 whole entry): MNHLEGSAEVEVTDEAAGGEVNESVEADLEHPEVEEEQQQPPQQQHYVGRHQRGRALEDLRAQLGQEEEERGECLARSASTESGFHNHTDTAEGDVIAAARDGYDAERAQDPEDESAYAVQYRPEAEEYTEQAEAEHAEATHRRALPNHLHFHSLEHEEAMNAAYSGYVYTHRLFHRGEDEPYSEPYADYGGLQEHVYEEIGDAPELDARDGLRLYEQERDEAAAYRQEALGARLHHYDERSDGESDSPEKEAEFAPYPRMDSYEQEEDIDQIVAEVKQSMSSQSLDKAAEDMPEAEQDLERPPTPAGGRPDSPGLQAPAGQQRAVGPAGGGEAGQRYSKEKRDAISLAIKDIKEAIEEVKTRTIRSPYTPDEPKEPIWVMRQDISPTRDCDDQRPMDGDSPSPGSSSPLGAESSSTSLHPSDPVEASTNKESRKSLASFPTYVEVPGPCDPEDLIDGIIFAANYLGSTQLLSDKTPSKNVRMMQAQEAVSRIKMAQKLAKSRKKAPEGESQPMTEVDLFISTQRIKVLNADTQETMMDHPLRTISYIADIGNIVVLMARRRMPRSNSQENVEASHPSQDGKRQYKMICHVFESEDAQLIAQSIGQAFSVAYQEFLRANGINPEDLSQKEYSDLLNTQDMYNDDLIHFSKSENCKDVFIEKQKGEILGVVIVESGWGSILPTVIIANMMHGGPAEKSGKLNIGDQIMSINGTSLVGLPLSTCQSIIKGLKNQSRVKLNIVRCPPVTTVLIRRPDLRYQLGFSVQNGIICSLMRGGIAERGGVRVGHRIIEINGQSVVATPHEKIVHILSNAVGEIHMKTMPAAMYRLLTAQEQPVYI

[6] = target: T3, Estrogen receptor (Homo sapiens, UniProt P03372);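 further: potency for inhibiting coactivator peptide recruitment to the receptor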
T3 sequence (P03372 whole entry): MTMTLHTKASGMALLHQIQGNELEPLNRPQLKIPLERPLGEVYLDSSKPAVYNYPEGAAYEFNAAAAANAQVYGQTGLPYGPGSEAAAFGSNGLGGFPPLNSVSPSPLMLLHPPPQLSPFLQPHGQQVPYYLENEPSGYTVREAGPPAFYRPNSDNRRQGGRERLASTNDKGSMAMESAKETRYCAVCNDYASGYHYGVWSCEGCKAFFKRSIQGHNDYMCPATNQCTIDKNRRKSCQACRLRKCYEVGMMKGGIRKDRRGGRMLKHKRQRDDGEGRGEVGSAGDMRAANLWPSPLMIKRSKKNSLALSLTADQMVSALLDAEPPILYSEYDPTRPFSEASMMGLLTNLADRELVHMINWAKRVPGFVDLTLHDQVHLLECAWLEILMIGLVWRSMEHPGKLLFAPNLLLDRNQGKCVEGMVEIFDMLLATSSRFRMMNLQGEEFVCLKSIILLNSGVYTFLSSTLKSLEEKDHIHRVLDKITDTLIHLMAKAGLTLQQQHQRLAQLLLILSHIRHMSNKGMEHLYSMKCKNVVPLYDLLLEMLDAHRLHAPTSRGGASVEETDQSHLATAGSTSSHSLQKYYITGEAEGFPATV

[7] = target: T2, Voltage-gated N-type calcium channel alpha-1B subunit/Amyloid beta A4 precursor protein-binding family A member 1; type: protein assay; remark: listed apart in the source
[8] = target: T4, Kappa-type opioid receptor (Homo sapiens, UniProt P41145); assay: SAR analysis of small molecule antagonists of the kappa opioid receptor via a luminescent beta-arrestin assay - Set 4. [Related pubchem assays (depositor defined):AID1777, AID1778, AID1785, AID1786, AID1966, AID2133, AID2136, AID2285]; type: functional
T4 sequence (P41145 whole entry): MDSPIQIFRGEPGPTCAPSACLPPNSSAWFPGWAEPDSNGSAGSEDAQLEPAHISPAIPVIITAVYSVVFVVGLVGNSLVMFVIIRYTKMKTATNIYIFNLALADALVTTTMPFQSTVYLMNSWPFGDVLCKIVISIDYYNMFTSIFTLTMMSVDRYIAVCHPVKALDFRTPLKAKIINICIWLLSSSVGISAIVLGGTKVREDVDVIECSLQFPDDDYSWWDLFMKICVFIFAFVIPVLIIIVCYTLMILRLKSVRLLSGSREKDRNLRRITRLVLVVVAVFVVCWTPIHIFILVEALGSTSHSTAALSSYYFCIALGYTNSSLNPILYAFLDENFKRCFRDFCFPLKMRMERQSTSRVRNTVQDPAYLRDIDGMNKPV

[9] = target: Mu-type opioid receptor (Homo sapiens, UniProt P35372); assay: SAR Analysis of Antagonists of the MOR Receptor using an Image-Based Assay - Set 3. [Related pubchem assays (depositor defined):AID1777, AID1785, AID1786, AID1966, AID2133, AID2136, AID2284, AID2285, AID2420]; type: functional
Mu-type opioid receptor, sequence (P35372 whole entry): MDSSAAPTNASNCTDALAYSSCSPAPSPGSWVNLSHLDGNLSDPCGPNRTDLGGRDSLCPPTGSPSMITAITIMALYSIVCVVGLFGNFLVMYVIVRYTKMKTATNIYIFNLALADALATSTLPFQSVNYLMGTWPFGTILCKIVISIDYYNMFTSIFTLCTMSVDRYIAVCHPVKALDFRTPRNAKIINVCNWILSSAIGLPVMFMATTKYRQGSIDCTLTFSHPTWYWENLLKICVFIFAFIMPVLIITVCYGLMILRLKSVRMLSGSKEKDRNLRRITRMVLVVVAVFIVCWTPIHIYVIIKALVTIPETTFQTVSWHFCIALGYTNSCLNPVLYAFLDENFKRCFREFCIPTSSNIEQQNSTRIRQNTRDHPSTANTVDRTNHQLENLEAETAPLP

[10] = target: T4, Kappa-type opioid receptor; assay: SAR analysis of Antagonists of the Kappa Opioid Receptor (KOR) using an Image-Based Assay - Set 4. [Related pubchem assays (depositor defined):AID1777, AID1785]; type: functional
[11] = target: Delta-type opioid receptor (Homo sapiens, UniProt P41143); assay: SAR Analysis of Antagonists of the DOR Receptor using an Image-Based Assay - Set 3. [Related pubchem assays (depositor defined):AID1777, AID1785]; type: functional;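 further: U2OS cells expressing DOR1 and beta-arrestin GFP stimulated with 100 nM SNC80; imaging of GFP-tagged beta-arrestin moving into spots after receptor activation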
[12] = target: T5, Protein RecA (Mycobacterium tuberculosis, UniProt P9WHJ3); assay: Fluorescence Cell-Free Homogeneous Dose Retest to Identify Inhibitors of RecA-Intein Splicing Activity. [Related pubchem assays (depositor defined):AID2097, AID2223, AID489010, AID492950]; type: functional
T5 sequence (P9WHJ3 whole entry): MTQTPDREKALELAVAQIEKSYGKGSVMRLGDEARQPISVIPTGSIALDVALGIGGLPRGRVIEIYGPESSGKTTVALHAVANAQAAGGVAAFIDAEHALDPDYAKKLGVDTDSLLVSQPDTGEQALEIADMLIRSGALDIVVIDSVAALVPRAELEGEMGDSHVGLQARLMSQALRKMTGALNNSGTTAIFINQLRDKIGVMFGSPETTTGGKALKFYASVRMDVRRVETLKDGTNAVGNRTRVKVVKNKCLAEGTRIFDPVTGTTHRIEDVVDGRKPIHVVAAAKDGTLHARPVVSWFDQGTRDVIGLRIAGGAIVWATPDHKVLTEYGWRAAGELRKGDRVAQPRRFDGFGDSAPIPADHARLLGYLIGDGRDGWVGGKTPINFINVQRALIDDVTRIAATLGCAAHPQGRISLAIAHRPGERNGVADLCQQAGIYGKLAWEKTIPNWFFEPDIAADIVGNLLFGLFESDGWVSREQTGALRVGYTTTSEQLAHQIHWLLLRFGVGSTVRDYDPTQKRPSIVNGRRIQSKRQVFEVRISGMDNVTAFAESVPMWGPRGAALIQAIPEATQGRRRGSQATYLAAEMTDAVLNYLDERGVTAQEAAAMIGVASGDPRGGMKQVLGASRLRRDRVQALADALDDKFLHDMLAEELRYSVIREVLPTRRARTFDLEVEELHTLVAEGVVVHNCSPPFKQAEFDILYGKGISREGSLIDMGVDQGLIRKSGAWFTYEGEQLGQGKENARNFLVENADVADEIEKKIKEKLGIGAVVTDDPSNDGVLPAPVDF

[13] = target: T6, Replicative DNA helicase DnaB (Mycobacterium tuberculosis, UniProt P9WMR3); assay: DnaB intein splicing inhibitors, dose response, biochemical, cell-free fluorescence (AID 449749); type: functional
T6 sequence (P9WMR3 whole entry): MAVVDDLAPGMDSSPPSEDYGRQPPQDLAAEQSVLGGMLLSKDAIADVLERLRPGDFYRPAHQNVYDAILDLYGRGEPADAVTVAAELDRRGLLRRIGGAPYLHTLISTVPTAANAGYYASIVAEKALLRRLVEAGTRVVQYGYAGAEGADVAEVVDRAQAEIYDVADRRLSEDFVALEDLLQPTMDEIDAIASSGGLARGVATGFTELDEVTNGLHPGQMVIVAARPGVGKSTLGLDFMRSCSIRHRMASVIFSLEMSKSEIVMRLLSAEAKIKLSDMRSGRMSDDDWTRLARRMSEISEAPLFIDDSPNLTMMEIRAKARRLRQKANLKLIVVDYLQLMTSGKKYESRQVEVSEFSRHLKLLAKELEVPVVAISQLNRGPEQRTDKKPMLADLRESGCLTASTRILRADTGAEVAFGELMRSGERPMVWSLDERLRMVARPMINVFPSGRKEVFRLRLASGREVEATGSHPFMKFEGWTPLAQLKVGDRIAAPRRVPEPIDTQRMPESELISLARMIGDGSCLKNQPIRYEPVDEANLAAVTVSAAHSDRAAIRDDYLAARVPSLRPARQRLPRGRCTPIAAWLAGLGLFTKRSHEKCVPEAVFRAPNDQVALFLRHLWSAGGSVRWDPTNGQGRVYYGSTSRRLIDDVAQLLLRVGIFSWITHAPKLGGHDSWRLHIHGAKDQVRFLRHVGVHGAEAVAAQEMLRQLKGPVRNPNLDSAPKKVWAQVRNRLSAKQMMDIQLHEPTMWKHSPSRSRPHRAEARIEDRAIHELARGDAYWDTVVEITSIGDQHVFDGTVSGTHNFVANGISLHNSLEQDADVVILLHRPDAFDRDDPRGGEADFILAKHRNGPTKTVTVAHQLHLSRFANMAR

[14] = Intein inhibitors as potential Tuberculosis drugs, a cytotoxicity screen. [Related pubchem assays (depositor defined):AID2221, AID2223, AID434968, AID435010, AID449749, AID449750, AID489010]; type: functional
[15] = target: T4, Kappa-type opioid receptor; type: functional
[16] = target: T7, Beta-galactosidase (Escherichia coli, UniProt Q8VNN2); type: functional
T7 sequence (Q8VNN2 whole entry): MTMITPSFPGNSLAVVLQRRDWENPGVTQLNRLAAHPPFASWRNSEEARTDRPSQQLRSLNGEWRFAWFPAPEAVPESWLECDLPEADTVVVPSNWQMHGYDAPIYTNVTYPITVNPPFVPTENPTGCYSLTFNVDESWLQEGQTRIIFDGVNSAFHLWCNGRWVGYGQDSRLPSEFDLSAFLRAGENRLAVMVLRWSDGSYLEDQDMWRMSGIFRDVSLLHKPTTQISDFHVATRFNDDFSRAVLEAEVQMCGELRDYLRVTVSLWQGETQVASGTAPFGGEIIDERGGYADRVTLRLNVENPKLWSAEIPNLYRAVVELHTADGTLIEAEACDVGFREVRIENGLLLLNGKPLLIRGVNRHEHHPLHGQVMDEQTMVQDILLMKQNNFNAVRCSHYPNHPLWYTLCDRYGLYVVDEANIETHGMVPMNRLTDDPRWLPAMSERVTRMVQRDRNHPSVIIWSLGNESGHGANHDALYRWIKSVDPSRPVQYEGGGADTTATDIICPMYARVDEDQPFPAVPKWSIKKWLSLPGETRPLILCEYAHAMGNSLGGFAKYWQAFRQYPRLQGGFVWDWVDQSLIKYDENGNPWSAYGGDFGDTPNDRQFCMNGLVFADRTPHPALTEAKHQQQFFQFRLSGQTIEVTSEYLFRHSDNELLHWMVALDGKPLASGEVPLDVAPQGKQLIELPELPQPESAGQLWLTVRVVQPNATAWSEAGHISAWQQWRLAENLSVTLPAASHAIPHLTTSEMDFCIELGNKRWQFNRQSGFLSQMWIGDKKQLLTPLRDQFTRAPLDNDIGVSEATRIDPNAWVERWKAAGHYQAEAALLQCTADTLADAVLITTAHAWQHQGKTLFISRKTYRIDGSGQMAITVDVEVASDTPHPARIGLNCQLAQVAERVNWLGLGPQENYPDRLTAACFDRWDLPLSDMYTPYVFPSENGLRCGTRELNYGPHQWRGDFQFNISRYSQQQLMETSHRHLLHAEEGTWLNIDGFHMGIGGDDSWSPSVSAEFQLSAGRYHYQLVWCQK

[17] = target: T4, Kappa-type opioid receptor; type: functional; remark: listed apart in the source
[18] = target: T7, Beta-galactosidase; assay: detection-enzyme interference by beta-gal modulators – biochemical, E. coli enzyme, set 3, artefact control for CCR6 antagonist project, dose response (AID 504712); type: functional
[19] = microbe, parasite or virus in culture; type: functional; details: Mycobacterium tuberculosis
[20] = NIH3T3 cell viability loss – ATP luminescence, mouse fibroblasts, counter-screen, dose response (AID 2010); type: functional, cell-based;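 further: cells exposed to compound for about 90 hours before reading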
[21] = Trypanosoma cruzi growth suppression in host cells – NIH3T3 host cells, beta-gal luminescence, confirmation (AID 2044); type: functional, cell-based;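 further: intracellular parasites grown in NIH/3T3 mouse fibroblasts as host cells; luminescent beta-galactosidase reporter signal from transgenic T. cruzi replicating inside host cells; inhibitors lower the luminescence signal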
[22] = target: Disintegrin and metalloproteinase domain-containing protein 17 (Homo sapiens, UniProt P78536); assay: exosite inhibitors of ADAM17, dose response, biochemical (AID 743260)
[23] = inhibition of ADAM10 peptide cleavage – biochemical, FRET peptide substrate, recombinant human ADAM10, selectivity assay for ADAM17 exosite inhibitor project, dose response (AID 743259);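 further: ADAM10 enzyme cleaving a FRET peptide substrate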
[24] = target: G-protein coupled receptor 55 (Homo sapiens, UniProt Q9Y2T6); assay: selective activators of receptor GPR55 – imaging, U2OS cells, beta-arrestin-GFP redistribution, primary screen (AID 1961); type: functional
[25] = target: T8, Short transient receptor potential channel 4 (Mus musculus, UniProt Q9QUQ5); assay: potentiation of DAMGO-evoked TRPC4 calcium signal – cell-based, HEK293 TRPC4/mu-opioid, Fluo-4 calcium, EC20 DAMGO, dose response (AID 434941); type: functional
T8 sequence (Q9QUQ5 whole entry): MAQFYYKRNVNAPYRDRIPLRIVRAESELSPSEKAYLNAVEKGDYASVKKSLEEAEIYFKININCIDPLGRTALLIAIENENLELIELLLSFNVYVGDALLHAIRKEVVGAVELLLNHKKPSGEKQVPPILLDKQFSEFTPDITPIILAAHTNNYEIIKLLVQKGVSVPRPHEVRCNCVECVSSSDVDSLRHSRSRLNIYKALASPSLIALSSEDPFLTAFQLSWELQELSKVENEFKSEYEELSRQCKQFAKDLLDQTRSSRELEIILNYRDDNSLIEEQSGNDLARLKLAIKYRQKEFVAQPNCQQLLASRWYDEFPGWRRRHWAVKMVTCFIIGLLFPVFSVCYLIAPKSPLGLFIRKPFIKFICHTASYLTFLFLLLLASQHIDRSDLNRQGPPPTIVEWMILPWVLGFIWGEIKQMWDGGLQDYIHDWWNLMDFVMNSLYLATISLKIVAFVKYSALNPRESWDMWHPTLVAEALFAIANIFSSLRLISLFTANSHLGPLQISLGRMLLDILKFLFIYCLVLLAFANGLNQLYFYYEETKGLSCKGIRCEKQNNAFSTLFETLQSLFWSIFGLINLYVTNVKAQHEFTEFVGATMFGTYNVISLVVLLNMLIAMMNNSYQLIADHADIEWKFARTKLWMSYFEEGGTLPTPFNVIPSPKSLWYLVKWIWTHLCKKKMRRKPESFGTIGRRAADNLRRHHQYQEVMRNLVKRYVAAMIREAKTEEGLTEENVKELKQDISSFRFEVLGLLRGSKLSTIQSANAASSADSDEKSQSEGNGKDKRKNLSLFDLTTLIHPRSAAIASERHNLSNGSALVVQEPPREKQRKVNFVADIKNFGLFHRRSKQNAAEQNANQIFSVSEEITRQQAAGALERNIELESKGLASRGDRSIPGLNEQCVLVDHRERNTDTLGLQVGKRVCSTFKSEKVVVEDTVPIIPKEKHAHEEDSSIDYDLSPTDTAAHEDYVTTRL

In the case of `CC(=O)Oc1ccc2c(C)cc(=O)oc2c1`, the IC50 [1] is reported as 16.5 µM (active) and the IC50 [2] is reported as > 50 µM (inconclusive).
For `CC(C)NC(=O)c1cc(-c2cc(F)c(Cl)cc2Cl)n[nH]1`, the IC50 [3] was > 100 µM (not active) and the IC50 [4] was > 100 µM (inactive).
With `C=CCOc1ccc(CC2C(=O)N(C)C(=O)N(C)C2=O)cc1` the IC50 [5] was 4.93 µM (active), the IC50 [6] was > 50 µM (not active) and the IC50 [7] was > 50 µM (inactive).
For `CC(C)N(CCNC(=O)c1ccc(CNS(=O)(=O)c2ccc(C(C)(C)C)cc2)cc1)Cc1ccccc1`, the IC50 [8] was 2.66 µM (active), the IC50 [9] was > 32 µM (inactive) and the IC50 [10] was 0.79 µM (active). For the same molecule, the IC50 [11] was > 32 µM (inactive).
With `N#CC1=C(N)Oc2[nH]nc(-c3ccccc3)c2C1c1cccc(OC(=O)N2CCOCC2)c1` (stereo not given) the EC50 [12] was 1.19 µM (active), the AC50 [13] was 4.72 µM (active) and the CC50 [14] was 31.4 µM (active).
With `CCCCC/C(=N/O)c1c(C)[nH]c2ccccc12` the IC50 [15] was > 32 µM, the EC50 [16] was > 31.5 µM (inactive) and the IC50 [17] was > 31.5 µM (inactive).
For `C=CCN(CC=C)C(=S)NC(=O)c1ccc(-c2ccccc2)cc1`, the IC50 [18] was > 66.6 µM (inactive), the CC50 [19] was > 40 µM (active) and the EC50 [20] was 9.2 µM (active). The EC50 [21] was 1.82 µM (active).
With `Cc1ccc(S(=O)(=O)N(Cc2ccc(Cl)cc2)c2ccccc2C(=O)NCc2ccco2)cc1` the IC50 [22] was > 69.5 µM (inactive), the IC50 [23] was > 7.72 µM (active) and the EC50 [24] was > 32 µM (inactive).
For `O=[N+]([O-])c1cc(C(F)(F)F)ccc1NC1CCN(Cc2ccccc2)C1` (stereo not given), the EC50 [25] was 0.67 µM (active).
